The source of these data is patent US6069156A, “Indole derivatives as cGMP-PDE inhibitors” (Fujisawa Pharmaceutical Co., Ltd., priority 1995, dated 2000).

The target of one experiment is T1, cGMP-PDE (Homo sapiens, UniProt O76074).
T1 construct: cGMP-PDE was separated from other isozymes in human platelets; from tissue; host or cells: human platelets
As to the kind of experiment: cGMP-phosphodiesterase (PDE) Assay (human platelets).
Details: not given
Type of experiment: biochemical. Here is the method: cGMP-phosphodiesterase (PDE) Assay
cGMP-PDE was separated from other isozymes in human platelets by a modification of the method of Thompson et. al. (Cyclic Nucleotide Phosphodiesterase (PDE), in Methods of Enzymatic analysis, Vol 4, p127-234, 1984). In enzyme inhibition assays, the test compounds were dissolved in 10% DMSO and then diluted with assay buffer (50 mM Tris-HCl, pH 8.0, 0.1 mM dithiothreitol, 2 mM EGTA and 10 u/ml snake venom), at final concentrations ranging from 10^-10 to 10^-6 M. Assays were performed at 0.1 μM substrate ([^3 H]-cGMP) concentration, at 30° C. for 10 minutes using enzyme dilutions which gave 10-20% hydrolysis of substrate. Each assay was initiated by addition of substrate and terminated by addition of anion exchange resin (Dowex 1-X8, 25 μg/mg) followed by centrifugation for 10 minutes (3000 rpm, at 4° C.). Radioactivity of supernatant (^3 H-GMP) was assayed by liquid scintillation counting.
As usually defined, the IC50 is the midpoint of a concentration-inhibition curve. Consider `CCCc1c(C(=O)C(C)C)c2ccc(C(N)=O)cc2n1Cc1ccccc1C(=O)OC` [25-(2), 3-Isobutyryl-(2-methoxycarbonylbenzyl)-2-propylindole-6-carboxamide], for which the half-inhibitory concentration (IC50) was below 0.1 µM.
On the same count and under the same terms, the same measure for `CCCc1c(C(=O)C(C)C)c2ccc(C(N)=O)cc2n1Cc1cccc(Cl)c1` [27-(2), 1-(3-Chlorobenzyl)-3-isobutyryl-2-propylindole-6-carboxamide]: below 0.1 µM.
Still for that read-out and setting: the figure for `CCCc1c(C(=O)C(C)C)c2ccc(C(N)=O)cc2n1Cc1ccccc1I` [37-(3), 1-(2-Iodobenzyl)-3-isobutyryl-2-propylindole-6-carboxamide] is below 0.1 µM.
Same read-out and setting: the same measure for `CCCc1c(C(=O)C(C)C)c2ccc(C(N)=O)cc2n1Cc1ccccc1C#N` [37-(6), 1-(2-Cyanobenzyl)-3-isobutyryl-2-propylindole-6-carboxamide]: below 0.1 µM; for `CCCc1c(C(=O)C=C(C)C)c2ccc(C(N)=O)cc2n1Cc1ccccc1Cl` [73-(40), 1-(2-Chlorobenzyl)-3-(3-methyl-2-butenoyl)-2-propylindole-6-carboxamide]: below 0.1 µM.
Consider `CCCc1c(C(=O)C(C)C)c2cc(C(N)=O)ccc2n1Cc1ccccc1Cl` [75-(4), 1-(2-Chlorobenzyl)-3-isobutyryl-2-propylindole-5-carboxamide], for which the half-inhibitory concentration (IC50) was below 0.1 µM.
Same read-out and setting: the same measure for `CCCc1c(C(=O)CN2CCOCC2)c2ccc(C(N)=O)cc2n1Cc1ccccc1Cl` [75-(10), 1-(2-Chlorobenzyl)-3-morpholinoacetyl-2-propylindole-6-carboxamide]: below 0.1 µM.
The same measure, in the same setting: the same measure for `CCCc1c(C(N)=O)c2ccc(C(N)=O)cc2n1Cc1ccccc1Cl` [75-(15), 1-(2-Chlorobenzyl)-2-propylindole-3,6-dicarboxamide]: below 0.1 µM.
The molecule `Cc1c(C(=O)C(C)C)c2ccc(C(N)=O)cc2n1Cc1c(Cl)sc2ccccc12` [75-(21), 1-(2-Chlorobenzo[b]thiophen-3-ylmethyl)-3-isobutyryl-2-methylindole-6-carboxamide] returned an IC50 below 0.1 µM.
On the same count and under the same terms, the figure for `CCCc1c(C(=O)C(C)C)c2ccc(C(N)=O)cc2n1Cc1ccc2sccc2c1` [75-(23), 1-(Benzo[b]thiophen-5-ylmethyl)-3-isobutyryl-2-propylindole-6-carboxamide] is below 0.1 µM; for `CCCc1c(C(=O)C(C)C)c2ccc(C(N)=O)cc2n1Cc1ccc2ccccc2c1` [75-(27), 3-Isobutyryl-2-propyl-1-(2-naphthylmethyl)indole-6-carboxamide] it is below 0.1 µM; for `CCCc1c(C(=O)C(C)C)c2ccc(C(=O)OC)cc2n1Cc1ccccc1Cl` [Example 4, Methyl 1-(2-chlorobenzyl)-3-isobutyryl-2-propylindole-6-carboxylate] it is below 0.1 µM.

Staying with this experiment, now noted: 0.1 μM [3H]-cGMP, 30° C., 10 minutes; read-out: IC50.
Consider `CCCc1c(C#N)c2ccc(C(N)=O)cc2n1Cc1ccccc1Cl` [37-(11), 1-(2-Chlorobenzyl)-3-cyano-2-propylindole-6-carboxamide], for which the IC50 was below 0.1 µM.
Still for that read-out and setting: the same measure for `CCc1c(CC)n(Cc2ccccc2Cl)c2cc(C(N)=O)ccc12` [37-(17), 1-(2-Chlorobenzyl)-2,3-diethylindole-6-carboxamide]: below 0.1 µM.
Same read-out and setting: the same measure for `CCc1c(Cl)n(Cc2ccccc2Cl)c2cc(C(N)=O)ccc12` [75-(35), 2-Chloro-1-(2-chlorobenzyl)-3-ethylindole-6-carboxamide]: below 0.1 µM.
Still for that read-out and setting: the same measure for `CC(=O)C=Cc1cn(Cc2ccccc2Cl)c2cc(C(N)=O)ccc12` [75-(38), 1-(2-Chlorobenzyl)-3-(3-oxo-1-butenyl)indole-6-carboxamide]: below 0.1 µM; for `NC(=O)c1ccc2c3c(n(Cc4ccccc4Cl)c2c1)C(=O)CC3` [75-(39), 4-(2-Chlorobenzyl)-3-oxo-1,2,3,4-tetrahydrocyclopent[b]indole-6-carboxamide]: below 0.1 µM; for `CC(=O)c1c(CC(C)C)c2ccc(C(N)=O)cc2n1Cc1ccccc1Cl` [Example 18, 2-Acetyl-1-(2-chlorobenzyl)-3-isobutylindole-6-carboxamide]: below 0.1 µM.
